Laboratory results from US12466821B2 (Novartis AG, priority 2018, dated 2025).

How the values were obtained:
[1] = tested on: VZV Ellen strain; assay: VZV qPCR assay (cellular herpesvirus replication); type: cell-based; conditions: Human alphaherpesvirus 3, MRC5, 48 h; MRC-5 cells, qPCR after two days; n>3, value (+/- spread)
Protocol: (§1) For all viral assays, 10 mM DMSO stock compound solutions were serially diluted in DMSO at 3.16 fold dilutions in 96-well clear round bottom plates. Compounds were then diluted in assay media at 1:20 and subsequently 10 μL of these dilutions were added to cells for final compound concentrations ranging either from 0.0159 μM to 50 μM in 0.5% DMSO/assay media, or from 0.00318 to 10 μM in 0.5% DMSO/assay media.
VZV qPCR assay: The assay uses co-infection with VZV Ellen strain-infected MRC-5 cells (ATCC cat #VR-1367). Viral replication in the presence or absence of compounds was measured by qPCR according to the following procedure: 12,000 uninfected MRC-5 cells were mixed with VZV-infected MRC-5 cells at a ratio of 1 to 10 infected to uninfected cells, in 96-well white-wall clear bottom plates in 90 μL/well of assay media: 4% FBS in EMEM (ATCC cat #30-2003). […] The chosen ratio of infected to uninfected cells gave approximately 3% VZV-positive cells at 6 hours post co-culturing, as detected by immunofluorescent staining of VZV Immediate Early 62 gene. […]
qPCR reactions were carried out in a total reaction volume of 20 μL, using the QuantiFast® Multiplex PCR kit (Qiagen cat #204656). […]
Relative quantification was calculated with the ΔΔCT Method, and then converted into percent inhibitions. […] EC50 values were calculated using XLFit Dose Response One Site Model 205.

[2] = tested on: EBV (SNU-719 gastric carcinoma cell line latently infected with EBV); assay: EBV qPCR assay (cellular herpesvirus replication); type: cell-based; conditions: human gammaherpesvirus 4; SNU-719 cells, TPA/NaB reactivation, qPCR after 72 hrs; n>3, value (+/- spread)
Protocol: as §1
EBV qPCR assay: The assay uses the SNU-719 gastric carcinoma cell line which is latently infected with EBV. Upon reactivation with chemical reagents, EBV DNA copy number was measured by qPCR. Viral replication in the presence or absence of compounds was measured according to the following procedure: SNU-719 cells were plated at 2×10^4 cells/well in 96-well clear bottom plates, black in 80 μL/well of assay media: 2% FBS in RPMI 1640 (ATCC cat # 30-2001). […]
qPCR reactions were carried out in a total reaction volume of 20 μL, using the QuantiFast® Multiplex PCR kit (Qiagen cat #204656). Eighteen μL of qPCR master mix (10 μL of 2× QuantiFast® Multiplex PCR Master Mix, 1 μL of 20× Primer/Probe Mix specific to housekeeping gene, 1 μL of 20× Primer/Probe Mix specific to viral gene, 6 μL of H2O) was distributed into each well of a 384 well plate. […]
Relative quantification was calculated with the ΔΔCT Method, and then converted into percent inhibitions. […]

N#Cc1ccc(CNC(=O)c2ccc3n(c2=O)CCN(CC2(S(=O)(=O)C4CC4)CC2)C3=O)cc1 [Example 1, N-(4-cyanobenzyl)-2-((1-(cyclopropylsulfonyl)cyclopropyl)methyl)-1,6-dioxo-2,3,4,6-tetrahydro-1H-pyrido[1,2-a]pyrazine-7-carboxamide]
EC50 [1]: 20 nM
EC50 [2]: 12 nM
